Assay [1] has as its system MV-4-11. Nature of the assay: Anti-proliferative effect in MV-4-11 cells, CellTiter-Glo (Assay 7). In kind it is cell-based. To be noted: MV-4-11, 72 hours incubation, CellTiter-Glo, several values per example, read-out: Antiproli MV-4-11. Put shortly: (§1)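 72 h CTG viability assay, 37 °C, humidified. Time-zero plate as baseline; IC50 vs day 0 and DMSO controls.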
(Cellular ATP, detected with luciferase, serves as a proxy for viable cell number.)

The target in assay [2] is BCL-XL (Homo sapiens, UniProt Q07817). Nature of the assay: Protein-protein interaction assay BCL-XL/Bad BH3 peptide, TR-FRET (BCL-XL assay, Assay 2). In kind it is binding. To be noted: His-BCL-XL / Bad BH3 peptide, median. (In general: Time-resolved FRET reads energy transfer from a long-lived donor to a nearby acceptor.)
Chain of BCL-XL (Q07817 1-212): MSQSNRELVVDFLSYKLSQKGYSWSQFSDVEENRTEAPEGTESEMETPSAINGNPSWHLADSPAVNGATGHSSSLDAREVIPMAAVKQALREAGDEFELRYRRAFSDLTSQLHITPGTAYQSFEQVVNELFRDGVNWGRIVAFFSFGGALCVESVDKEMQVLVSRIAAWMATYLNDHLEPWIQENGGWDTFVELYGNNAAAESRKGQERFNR
Assay [3] concerns the target MCL-1 (Homo sapiens, UniProt Q07820, K194A/K197A/R201A). Nature of the assay: Protein-protein interaction assay MCL-1/Noxa BH3 peptide, TR-FRET (MCL-1 assay, Assay 1). In kind it is binding. To be noted: MCL-1 Assay [M] (median), MBP-MCL-1 / Noxa BH3 peptide. Put shortly:
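TR-FRET competition between compounds and a biotin-PEG Noxa BH3 tracer for 1 nM MBP-MCL-1 (residues 173-321). Incubation was 1 h at 22 °C in the dark, then overnight at 4 °C, in 50 mM Tris pH 7 buffer with KF and DTT, after a 10-min compound pre-equilibration. Normalized ratios were fitted with a 4-parameter Hill equation to give IC50.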

The subject of assay [4] is SUDHL10. Nature of the assay: Induction of cytotoxicity in SUDHL10 cells, CellTiter-Glo (Assay 6). In kind it is cell-based. As to conditions: Homo sapiens, SU-DHL10, 5 h, SUDHL10, 5 hours incubation, median, read-out: Cytotox SUDHL10 [M] (median). In short, it runs like this:
(§2)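 Short-exposure cytotoxicity: 5 h compound, 37° C, humidified; CellTiter-Glo luminescence; cell-free medium control; edge wells omitted.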

Assay [5] addresses BCL-2 (Homo sapiens, UniProt P10415). Nature of the assay: Protein-protein interaction assay BCL-2/Bad BH3 peptide, TR-FRET (BCL-2 assay, Assay 3). In kind it is binding. As to conditions: His-BCL-2 / Bad BH3 peptide, median.
Assay [6] relates to A2780. Nature of the assay: Anti-proliferative effect in A2780 cells, CellTiter-Glo (Assay 7). In kind it is cell-based. To be noted: A2780, 72 hours incubation, CellTiter-Glo, several values per example, read-out: Antiproli A2780. Put shortly:
as §1

Assay [7] has as its system SUDHL5. Nature of the assay: Induction of cytotoxicity in SUDHL5 cells, CellTiter-Glo (Assay 6). In kind it is cell-based. To be noted: Homo sapiens, SU-DHL-5, 5 h, SUDHL5, 5 hours incubation, median, read-out: Cytotox SUDHL5 [M] (median). In short, it runs like this: as §2
Assay [8] concerns SUDHL5. Nature of the assay: Anti-proliferative effect in SUDHL5 cells, CellTiter-Glo (Assay 7). In kind it is cell-based. To be noted: Homo sapiens, SU-DHL-5, 72 h, SUDHL5, 72 hours incubation, CellTiter-Glo; median; read-out: Antiproli SUDHL5 [M] (median). In short, it runs like this:
as §1

In assay [9] the test system is SUDHL5. Nature of the assay: Induction of caspase-3/7 activity in SUDHL5 cells (Assay 4). In kind it is cell-based. As to conditions: Homo sapiens, SU-DHL-5, 3 h, SUDHL5, 3 hours treatment, Caspase-Glo 3/7; median; read-out: Caspase SUDHL5 [M] (median). In short, it runs like this: (§3)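 Luminescent Caspase-Glo 3/7 read-out in SUDHL5 and SUDHL10 cells after 3 h compound exposure at 37 °C, followed by 1 h reagent incubation.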

In assay [10] the test system is SUDHL10. Nature of the assay: Induction of caspase-3/7 activity in SUDHL10 cells (Assay 4). In kind it is cell-based. As to conditions: Homo sapiens, SU-DHL10, 3 h, SUDHL10, 3 hours treatment, Caspase-Glo 3/7; median; read-out: Caspase SUDHL10 [M] (median). In short, it runs like this:
as §3

In assay [11] the test system is AMO-1. Nature of the assay: Anti-proliferative effect in AMO-1 cells, CellTiter-Glo (Assay 7). In kind it is cell-based. To be noted: AMO-1, 72 hours incubation, CellTiter-Glo, several values per example, read-out: Antiproli AMO-1. Put shortly:
as §1

Like-named read-outs stand apart in the source and are kept apart here. Bounds are passed on as bounds.

Chain of BCL-2 (P10415 1-211): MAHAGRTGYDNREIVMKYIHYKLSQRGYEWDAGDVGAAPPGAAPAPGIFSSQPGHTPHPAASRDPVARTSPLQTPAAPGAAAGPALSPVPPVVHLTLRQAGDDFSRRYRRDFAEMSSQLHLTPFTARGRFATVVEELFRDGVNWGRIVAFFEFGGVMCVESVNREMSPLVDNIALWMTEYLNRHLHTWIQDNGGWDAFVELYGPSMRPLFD
Chain of MCL-1 (Q07820 173-321 K194A/K197A/R201A, looked up): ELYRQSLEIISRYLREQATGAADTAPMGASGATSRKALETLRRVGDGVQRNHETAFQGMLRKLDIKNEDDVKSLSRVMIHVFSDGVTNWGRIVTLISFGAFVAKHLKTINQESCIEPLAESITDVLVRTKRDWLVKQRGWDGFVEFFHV

On to `Cc1c2c(nn1C)COCc1ccccc1Cn1c(C(=O)O)c(CCCOc3cccc4c3CCCC4)c3ccc(F)c-2c31` (racemic) [Example 62, (rac)-15-Fluoro-13,14-dimethyl-1-(3-((5,6,7,8-tetrahydronaphthalen-1-yl)oxy)propyl)-4,9,11,13-tetrahydrobenzo[3,4]pyrazolo[4′,3′:9,10][1,6]oxaazacycloundecino[8,7,6-hi]indole-2-carboxylic Acid], for which the IC50 is 6.36 µM in assay [1] (Homo sapiens, MV4-11, 72 h); > 20 µM in assay [2]; 2.6e-09 M in assay [3]; 5.2e-06 M in [4]; > 20 µM in assay [5]; 13.9 µM in [6] (Homo sapiens, A2780, 72 h). The figures for the IC50 in assay [7] and in [8] were 2.9e-06 M and 3.1e-06 M, respectively. Also, the EC50 in assay [9] worked out at 3.2e-06 M; in assay [10] it was 1e-05 M.

Regarding `Cc1c2c(nn1C)COCc1ccccc1Cn1c(C(=O)O)c(CCCOc3ccc(F)c4ccccc34)c3ccc(F)c-2c31` (racemic) [Example 63, (rac)-15-Fluoro-1-(3-((4-fluoronaphthalen-1-yl)oxy)propyl)-13,14-dim4,9,11,13-tetrahydrobenzo[3,4]pyrazolo[4′,3′:9,10][1,6]oxaazacycloundecino[8,7,6-hi]indole-2-carboxylic Acid], the IC50 in [1] (Homo sapiens, MV4-11, 72 h) is > 33 µM; in [2], > 20 µM; in assay [3], 4.5e-09 M; in assay [4] it was 1.5e-05 M; in assay [5] it was 18.1 µM; in assay [6] (Homo sapiens, A2780, 72 h), 19.7 µM. In addition, the figures for the IC50 in assay [7] and in assay [8] were 8.3e-06 M and 6.2e-06 M, respectively. For the same molecule, the EC50 in assay [9] came out at 9.3e-06 M; in [10] it was 2.3e-05 M.

For the molecule `CCc1c2c(nn1C)COCc1ccccc1Cn1c(C(=O)O)c(CCCOc3ccc(F)c4ccccc34)c3ccc(F)c-2c31` (racemic) [Example 76, (rac)-14-Ethyl-15-fluoro-1-(3-((4-fluoronaphthalen-1-yl)oxy)propyl)-13-methyl-4,9,11,13-tetrahydrobenzo[3,4]pyrazolo[4′,3′:9,10][1]oxa[6]azacycloundecino[8,7,6-hi]indole-2-carboxylic Acid], the IC50 in assay [1] (Homo sapiens, MV4-11, 72 h) was 9.05 µM; in assay [1], 10.1 µM; in [2], > 20 µM; in assay [3] it was 3.1e-09 M; in assay [4], 9.4e-06 M; in [5] it was 15.8 µM. In addition, the IC50 in assay [6] amounted to 25 µM; in assay [6] (Homo sapiens, A2780, 72 h) it was 16.6 µM; in assay [7], 3.4e-06 M; in assay [8], 3.7e-06 M. Besides, the EC50 in [9] came to 3.3e-06 M; in assay [10], 1.3e-05 M.

Take `CCc1c2c(nn1C)COCc1ccccc1Cn1c(C(=O)O)c(CCCOc3cc(C)c(Cl)c(C)c3)c3ccc(F)c-2c31` (racemic) [Example 79, (rac)-1-(3-(4-Chloro-3,5-dimethylphenoxy)propyl)-14-15-fluoro-13-methyl-4,9,11,13-tetrahydrobenzo[3,4]pyrazolo[4′,3′:9,10][1]oxa[6]azacycloundecino[8,7,6-hi]indole-2-carboxylic Acid]: the IC50 in [1] (Homo sapiens, MV4-11, 72 h) was 2.33 µM; in assay [2], 19.6 µM; in assay [3] it was 2.6e-09 M; in [4] it was 1e-05 M; in assay [5] it was 15.6 µM; in assay [6] (Homo sapiens, A2780, 72 h), 17 µM. In addition, the figures for the IC50 in assay [7] and in assay [8] were 2.1e-06 M and 9.2e-06 M, respectively. Besides, the EC50 in assay [9] amounted to 2.9e-06 M; in assay [10], 1.3e-05 M.

Turning to `Cc1nn(C)c2c1-c1c(F)ccc3c(CCCOc4cccc5c4CCC5)c(C(=O)O)n(c13)Cc1ccccc1COC2` (racemic) [Example 84, (rac)-1-(3-((2,3-Dihydro-1H-inden-4-yl)oxy)propyl)-15-fluoro-12,14-dimethyl-4,9,11,12-tetrahydrobenzo[3,4]pyrazolo[4′,3′:9,10][1]oxa[6]azacycloundecino[8,7,6-hi]indole-2-carboxylic Acid], the IC50 in [1] (Homo sapiens, MV4-11, 72 h) was 12.5 µM; in assay [2], > 20 µM; in [3], 6.2e-09 M; in assay [4], 2.2e-05 M; in assay [5], > 20 µM; in assay [6] (Homo sapiens, A2780, 72 h) it was 31 µM. In addition, the figures for the IC50 in [7] and in assay [8] were 1.1e-05 M and 7.7e-06 M, respectively. In addition, the results for the EC50 in assay [9] and in [10] were 9.8e-06 M and 2.7e-05 M, respectively.

Consider `CCc1nn(C)c2c1-c1c(F)ccc3c(CCCOc4cccc5c4CCC5)c(C(=O)O)n(c13)Cc1ccccc1COC2` (racemic) [Example 87, (rac)-1-(3-((2,3-Dihydro-1H-inden-4-yl)oxy)propyl)-14-ethyl-15-fluoro-12-methyl-4,9,11,12-tetrahydrobenzo[3,4]pyrazolo[4′,3′:9,10][1,6]oxaazacycloundecino[8,7,6-hi]indole-2-carboxylic Acid], for which the IC50 in assay [1] (Homo sapiens, MV4-11, 72 h) is 12.4 µM; in [1], 6.98 µM; in assay [2], > 20 µM; in assay [3], 4.5e-09 M; in assay [4] it was 6e-06 M; in assay [5] it was 13.7 µM. Moreover, the IC50 in assay [7] amounted to 3.2e-06 M; in assay [8], 2.1e-06 M; in assay [11], 6.64 µM; in assay [11] (Homo sapiens, AMO1, 72 h), 12.9 µM. The figures for the EC50 in [9] and in assay [10] were 2.3e-06 M and 9.4e-06 M, respectively.

Regarding `CCc1nn(C)c2c1-c1c(F)ccc3c(CCCOc4cccc5c4CCCC5)c(C(=O)O)n(c13)Cc1ccccc1COC2` (racemic) [Example 88, (rac)-14-Ethyl-15-fluoro-12-methyl-1-(3-((5,6,7,8-tetrahydronaphthalen-1-yl)oxy)propyl)-4,9,11,12-tetrahydrobenzo[3,4]pyrazolo[4′,3′:9,10][1,6]oxaazacycloundecino[8,7,6-hi]indole-2-carboxylic Acid], the IC50 is 9.93 µM in [1] (Homo sapiens, MV4-11, 72 h); > 20 µM in assay [2]; 7.4e-09 M in [3]; 1.5e-05 M in [4]; 13.7 µM in assay [5]; 15.1 µM in [6] (Homo sapiens, A2780, 72 h). Besides, the figures for the IC50 in assay [7] and in [8] were 7.4e-06 M and 6e-06 M, respectively. Further, the EC50 in assay [9] worked out at 6.2e-06 M; in [10], 1.7e-05 M.

In the case of `CCc1nn(C)c2c1-c1c(F)ccc3c(CCCOc4cccc5ccccc45)c(C(=O)O)n(c13)Cc1ccccc1COC2` (racemic) [Example 91, (rac)-14-Ethyl-15-fluoro-12-methyl-1-(3-(naphthalen-1-yloxy)propyl)-4,9,11,12-tetrahydrobenzo[3,4]pyrazolo[4′,3′:9,10][1,6]oxaazacycloundecino[8,7,6-hi]indole-2-carboxylic Acid], the IC50 was 12.4 µM in assay [1] (Homo sapiens, MV4-11, 72 h); 11.7 µM in assay [1]; > 20 µM in assay [2]; 8.6e-09 M in assay [3]; 7.5e-06 M in [4]; ≥ 20.5 µM in [5]. Besides, the IC50 in [7] was found to be 3.2e-06 M; in [8] it was 3.6e-06 M; in assay [11] it was 15.3 µM; in [11] (Homo sapiens, AMO1, 72 h), 18.7 µM. In addition, the EC50 in [9] worked out at 2.8e-06 M; in assay [10], 1.2e-05 M.

Consider `Cc1cc(OCCCc2c(C(=O)O)n3c4c(c(F)ccc24)-c2c(nn(C)c2C)COCc2ccccc2C3)cc(C)c1Cl` [Example 60, (rac)-1-(3-(4-Chloro-3,5-dimethylphenoxy)propyl)-15-fluoro-13,14-dimethyl-4,9,11,13-tetrahydrobenzo[3,4]pyrazolo[4′,3′:9,10][1,6]oxaazacycloundecino[8,7,6-hi]indole-2-carboxylic Acid], for which the IC50 in assay [1] (Homo sapiens, MV4-11, 72 h) is 5.75 µM; in assay [2] it was > 20 µM; in assay [3], 2.9e-09 M; in [4], 7.6e-06 M; in assay [5], 19.8 µM; in [6] (Homo sapiens, A2780, 72 h), 23 µM. Also, the IC50 in assay [7] came out at 3.7e-06 M; in assay [8], 5.1e-06 M. The EC50 in assay [9] was determined as 3e-06 M; in assay [10] it was 1.2e-05 M.

Values taken from patent US20210253598A1, “ARYL ANNULATED MACROCYCLIC INDOLE DERIVATIVES” (priority 2017, published 2021).
